Patent publication US10584159B2, “Renilla based biosensors for monitoring biomolecule localization and trafficking in cells” (The Royal Institution for the Advancement of …, priority 2014, dated 2020)
Each block holds one compound with its values, some of them ahead of it.

Tests used:
Assay type in all cases: cell-based
[1] = molecular target: T1, Prostaglandin F receptor (FP) (Homo sapiens, UniProt P43088); assay: Unimolecular DAG sensor BRET, FP activation; settings: FP-transfected HEK293SL, 1 min stimulation, read-out: EC50, DAG produced at the plasma membrane
T1 construct: expressed in transfected cells; host or cells: HEK293SL
T1 sequence (P43088 whole entry): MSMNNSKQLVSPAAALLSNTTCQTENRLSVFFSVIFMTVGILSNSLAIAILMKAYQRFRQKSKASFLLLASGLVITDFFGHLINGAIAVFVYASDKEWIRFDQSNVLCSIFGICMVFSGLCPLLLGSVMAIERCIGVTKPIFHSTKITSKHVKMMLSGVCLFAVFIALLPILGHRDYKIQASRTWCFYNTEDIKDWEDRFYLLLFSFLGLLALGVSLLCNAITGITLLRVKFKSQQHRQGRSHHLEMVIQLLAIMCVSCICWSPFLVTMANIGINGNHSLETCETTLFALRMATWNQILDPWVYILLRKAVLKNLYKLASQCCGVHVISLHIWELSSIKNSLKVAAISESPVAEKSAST
Method: (§1) Unimolecular DAG sensor. For FIGS. 22B and C, HEK293SL cells stably expressing hAt1AR (˜50 fmol/mg) were cultured in DMEM supplemented with 10% FBS and 20 μg/ml gentamycin and seeded at a density of 75,000 cells/100 mm dishes and were transiently transfected the next day with 150 ng of construct encoding for the DAG unimolecular sensor, using calcium phosphate method as described previously. 48 h post-transfection, cells were washed and Coel-400a was added to a final concentration of 5 μM and incubated 3 min. […] Data are mean±SD of triplicates of a representative experiment. […] Data are mean±S.E. of six independent experiments. For FIGS. 22D and E, Hek293SL cells were transfected with FuGENE HD, according to Roche's protocol with a ratio of 2:1 fugene:DNA. 10 ng of construct encoding the unimolecular sensor and 400 ng for the receptor (FIGS. 22D, FP and in 2E, GPR14) complemented to 1 ug with ssDNA, were transfected per well of a 6 well plate. 48 h post-transfection, cells were washed, incubated in Tyrode's buffer for 1 h. […] For FIG. 22F, cells were transfected as in FIG. 22D but with just the unimolecular DAG sensor encoding construct. 48 h post-transfection, cells were washed, incubated in Tyrode's buffer for 1 h. […] Cells were then stimulated with 5 μM m-3m3FBS or just vehicle for the indicated time. […] 48 h post-transfection, cells were washed, incubated in Tyrode's buffer for 1 h.

hMC4R wt = molecular target: T2, hMC4R wt (Homo sapiens, UniProt P32245); assay: BRET pharmacological chaperone rescue / sequestration assay (rGFP-CAAX), hMC4R wt-RlucII; settings: 10 μM, 16 h
T2 construct: expressed in transfected cells; host or cells: HEK293
T2 sequence (P32245 whole entry): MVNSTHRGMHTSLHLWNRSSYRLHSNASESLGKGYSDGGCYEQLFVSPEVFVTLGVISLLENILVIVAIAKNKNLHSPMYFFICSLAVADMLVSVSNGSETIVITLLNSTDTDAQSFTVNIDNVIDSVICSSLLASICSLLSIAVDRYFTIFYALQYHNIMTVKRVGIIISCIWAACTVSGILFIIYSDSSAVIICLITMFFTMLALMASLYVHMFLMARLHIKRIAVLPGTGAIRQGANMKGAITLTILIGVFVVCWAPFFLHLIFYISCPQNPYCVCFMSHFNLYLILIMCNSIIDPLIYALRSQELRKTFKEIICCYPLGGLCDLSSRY
Method: (§2) BRET assay for evaluation of PC rescue of cell surface expression and functionality (sequestration assay). In FIGS. 12A to 18E, Hek293 cells were transiently transfected using PEI as described in this section. The DNA transfected per well of a 96-well plate is as follow: in FIGS. 12A and 12B, with 2.4 ng of hMC4R-RlucII encoding construct and an increasing quantity of rGFP-CAAX (Kras) up to 9.6 ng for FIGS. 12A and for 12B, rGFP-PB up to 9.6 ng; in FIGS. 13A to 13C with 0.6, 1.2 or 2.4 ng of hMC4R-RlucII and 4.8 ng of rGFP-CAAX (Kras); in FIG. 13D with 2.4 ng of polycistronic rGFP-CAAX(Kras)/MC4R-RlucII construct; in FIG. 13E with 1.2 ng of hV2R-RlucII and 4.8 ng of rGFP-CAAX (Kras); in FIGS. 14A to 16B with 2.4 ng of hMC4R-RlucII and 7.2 ng of rGFP-CAAX (Kras); Hek293 cells stably expressing rGFP-CAAX(Kras) were transfected with 0.6, 1.2 or 2.4 ng of hMC4R-RlucII; in FIG. 17A or 0.6, 1.2 or 2.4 ng of hV2R_Y128S-RlucII; in FIG. 17B; in FIGS. 18A and 18B with 0.6, 1.2 or 2.4 ng of hERG-RlucII and 4.8 ng of rGFP-CAAX (Kras); and in FIGS. 18C-18E with 0.6 ng of hERG-RlucII and 7.2 ng of rGFP-CAAX (Kras). […] For the BRET assay, cells were washed once with PBS and left in Tyrode's buffer. […] BRET values were determined by calculating the ratio of the light emitted by the acceptor over the light emitted by the RlucII.

hMC4R (P299H) = molecular target: T3, hMC4R (P299H) (Homo sapiens, UniProt P32245, P299H); assay: BRET pharmacological chaperone rescue assay (rGFP-CAAX), hMC4R (P299H)-RlucII; settings: 10 μM, 16 h
T3 construct: expressed in transfected cells; host or cells: HEK293
T3 sequence (P32245 whole entry P299H): as the sequence (P32245 whole entry) above, with P299H counted along it
Method: as §2

hMC4R (R165Q) = molecular target: T4, hMC4R (R165Q) (Homo sapiens, UniProt P32245, R165Q); assay: BRET pharmacological chaperone rescue / sequestration assay (rGFP-CAAX), hMC4R (R165Q)-RlucII; settings: 10 μM, 16 h
T4 construct: expressed in transfected cells; host or cells: HEK293
T4 sequence (P32245 whole entry R165Q): as the sequence (P32245 whole entry) above, with R165Q counted along it
Method: as §2

[2] = system: PLC (β2, β3, γ1, γ2, δ1 isoforms); assay: Unimolecular DAG sensor BRET, direct PLC activation; settings: 5 uM
Method: as §1

- EC50 [1]: 90 nM
Structure (SMILES): CCCCC[C@H](O)/C=C/[C@H]1[C@H](O)CC(=O)[C@@H]1C/C=C\CCCC(=O)O [PGE2, Prostaglandin E2]

- PC-mediated rescue of cell surface expression (hMC4R wt): increase in BRET signal
- PC-mediated rescue of cell surface expression (hMC4R (P299H)): not PC-rescued
- PC-mediated rescue of cell surface expression (hMC4R (R165Q)): increase in BRET signal
Structure (SMILES): CCC(=O)N[C@H](Cc1ccc(Cl)cc1Cl)C(=O)N1CCN(c2ccccc2CNC(C)COC)CC1 (stereo partly drawn) [DCPMP, N-((2R)-3(2,4-dichloroPhenyl)-1-(4-(2-((1-methoxypropan-2-ylamino)methyl)phenyl)piperazin-1-yl)-1-oxopropan-2-yl)propionamide]

Structure (SMILES): Cc1cc(C)c(S(=O)(=O)Nc2cccc(C(F)(F)F)c2)c(C)c1 [m-3m3FBS, N-(3-Trifluoromethylphenyl)-2,4,6-trimethylbenzenesulfonamide]
- BRET response of DAG sensor [2]: increase in BRET
